Source: ChEMBL document CHEMBL1148862, “Evaluation of the anti-hepatitis C virus effect of novel potent, selective, and orally bioavailable JNK and VEGFR kinase inhibitors” (Bioorg Med Chem Lett, 2007)
Calls of active or inactive are those of the source. The rule behind the calls is not given here.

Key:
[1] = Cytotoxicity against MT4 cells by luciferase assay; assay type: cell-based; settings: human
Hepatitis C virus [2] = experiment: Antiviral activity against HCV in Huh7-Rep cells by luciferase assay; assay type: functional, organism-based, Hepacivirus hominis
[3] = Cytotoxicity against Huh7 cells by luciferase assay; assay type: cell-based, Huh-7; settings: human
[4] = Drug level in Swiss SPF (CD1) mouse plasma at 20 mg/kg, po after 1 hr; assay type: ADME, organism-based; parameters: dose 20 mg/kg, route oral
[5] = tested on: Bovine viral diarrhea virus 1; experiment: Antiviral activity against BVDV upto 100 uM; assay type: functional, organism-based
TGF-beta receptor type-1 = molecular target: T1, TGF-beta receptor type-1 (Homo sapiens, UniProt P36897)
T1 sequence (P36897 whole entry): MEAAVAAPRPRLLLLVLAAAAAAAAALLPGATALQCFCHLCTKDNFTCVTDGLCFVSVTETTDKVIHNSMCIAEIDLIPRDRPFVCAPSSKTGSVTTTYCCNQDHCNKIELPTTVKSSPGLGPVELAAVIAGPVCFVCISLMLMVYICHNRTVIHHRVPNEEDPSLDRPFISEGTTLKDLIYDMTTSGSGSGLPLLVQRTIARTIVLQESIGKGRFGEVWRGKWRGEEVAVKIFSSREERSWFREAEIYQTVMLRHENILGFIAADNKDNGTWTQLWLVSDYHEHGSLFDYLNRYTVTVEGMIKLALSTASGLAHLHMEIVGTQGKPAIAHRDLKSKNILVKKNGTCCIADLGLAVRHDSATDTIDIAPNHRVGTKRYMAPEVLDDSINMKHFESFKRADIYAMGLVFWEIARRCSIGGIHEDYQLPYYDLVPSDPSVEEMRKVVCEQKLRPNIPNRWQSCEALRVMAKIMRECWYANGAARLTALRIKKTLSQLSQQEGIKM

[6] = Drug level in Swiss SPF (CD1) mouse plasma at 20 mg/kg, po after 24 hrs; assay type: ADME, organism-based; parameters: dose 20 mg/kg, route oral
[7] = Drug level in Swiss SPF (CD1) mouse plasma at 20 mg/kg, po after 0.5 hrs; assay type: ADME, organism-based; parameters: dose 20 mg/kg, route oral
[8] = AUC (0 to infinity) in Swiss SPF (CD1) mouse plasma at 20 mg/kg, po; assay type: ADME, organism-based; parameters: time infinity, dose 20 mg/kg, route oral
[9] = Half life in Swiss SPF (CD1) mouse plasma at 20 mg/kg, po after 2 to 8 hrs; assay type: ADME, organism-based; parameters: dose 20 mg/kg, route oral
[10] = AUC (0 to 8 hrs) in Swiss SPF (CD1) mouse heart at 20 mg/kg, po; assay type: ADME, organism-based; parameters: time < 8 hr, dose 20 mg/kg, route oral
[11] = Drug level in Swiss SPF (CD1) mouse heart at 20 mg/kg, po after 4 hrs; assay type: ADME, organism-based; parameters: dose 20 mg/kg, route oral; settings: read-out: Drug uptake
Hepatitis C virus [12] = experiment: Antiviral activity against HCV ET replicon with NS3 E1202G, T1280I mutation and NS4B K1846 mutation; assay type: functional, organism-based; settings: Hepacivirus hominis
[13] = AUC (0 to infinity) in Swiss SPF (CD1) mouse heart at 20 mg/kg, po; assay type: ADME, organism-based; parameters: time infinity, dose 20 mg/kg, route oral
[14] = AUC (0 to 8 hrs) in Swiss SPF (CD1) mouse plasma at 20 mg/kg, po; assay type: ADME, organism-based; parameters: time < 8 hr, dose 20 mg/kg, route oral
[15] = Half life in Swiss SPF (CD1) mouse heart at 20 mg/kg, po after 2 to 8 hrs; assay type: ADME, organism-based; parameters: dose 20 mg/kg, route oral
[16] = Drug level in Swiss SPF (CD1) mouse plasma at 20 mg/kg, po after 8 hrs; assay type: ADME, organism-based; parameters: dose 20 mg/kg, route oral
[17] = Cmax in Swiss SPF (CD1) mouse heart at 20 mg/kg, po; assay type: ADME, organism-based; parameters: dose 20 mg/kg, route oral
[18] = molecular target: Mitogen-activated protein kinase 8 (Homo sapiens, UniProt P45983); experiment: Inhibition of JNK1
[19] = molecular target: Mitogen-activated protein kinase 9 (Homo sapiens, UniProt P45984); experiment: Inhibition of human JNK2
[20] = Drug level in Swiss SPF (CD1) mouse liver at 20 mg/kg, po after 1 hr; assay type: ADME, organism-based; parameters: dose 20 mg/kg, route oral; settings: read-out: Drug uptake
[21] = Drug level in Swiss SPF (CD1) mouse plasma at 20 mg/kg, po after 4 hrs; assay type: ADME, organism-based; parameters: dose 20 mg/kg, route oral
[22] = molecular target: Vascular endothelial growth factor receptor 3 (Homo sapiens, UniProt P35916); experiment: Inhibition of human VEGFR3
[23] = AUC (0 to 8 hrs) in Swiss SPF (CD1) mouse liver at 20 mg/kg, po; assay type: ADME, organism-based; parameters: time < 8 hr, dose 20 mg/kg, route oral
[24] = Drug level in Swiss SPF (CD1) mouse heart at 20 mg/kg, po after 8 hrs; assay type: ADME, organism-based; parameters: dose 20 mg/kg, route oral; settings: read-out: Drug uptake
[25] = Drug level in Swiss SPF (CD1) mouse heart at 20 mg/kg, po after 2 hrs; assay type: ADME, organism-based; parameters: dose 20 mg/kg, route oral; settings: read-out: Drug uptake
[26] = Tmax in Swiss SPF (CD1) mouse plasma at 20 mg/kg, po; assay type: ADME, organism-based; parameters: dose 20 mg/kg, route oral
[27] = Drug level in Swiss SPF (CD1) mouse plasma at 20 mg/kg, po after 2 hrs; assay type: ADME, organism-based; parameters: dose 20 mg/kg, route oral
[28] = Tmax in Swiss SPF (CD1) mouse heart at 20 mg/kg, po; assay type: ADME, organism-based; parameters: dose 20 mg/kg, route oral
[29] = Drug level in Swiss SPF (CD1) mouse liver at 20 mg/kg, po after 2 hrs; assay type: ADME, organism-based; parameters: dose 20 mg/kg, route oral; settings: read-out: Drug uptake
[30] = Drug level in Swiss SPF (CD1) mouse liver at 20 mg/kg, po after 8 hrs; assay type: ADME, organism-based; parameters: dose 20 mg/kg, route oral; settings: read-out: Drug uptake
[31] = Cmax in Swiss SPF (CD1) mouse plasma at 20 mg/kg, po; assay type: ADME, organism-based; parameters: dose 20 mg/kg, route oral
[32] = Drug level in Swiss SPF (CD1) mouse liver at 20 mg/kg, po after 4 hrs; assay type: ADME, organism-based; parameters: dose 20 mg/kg, route oral; settings: read-out: Drug uptake
[33] = Cmax in Swiss SPF (CD1) mouse liver at 20 mg/kg, po; assay type: ADME, organism-based; parameters: dose 20 mg/kg, route oral
[34] = AUC (0 to infinity) in Swiss SPF (CD1) mouse liver at 20 mg/kg, po; assay type: ADME, organism-based; parameters: time infinity, dose 20 mg/kg, route oral
[35] = molecular target: Mitogen-activated protein kinase 10 (Homo sapiens, UniProt P53779); experiment: Inhibition of human JNK3
[36] = Drug level in Swiss SPF (CD1) mouse heart at 20 mg/kg, po after 1 hr; assay type: ADME, organism-based; parameters: dose 20 mg/kg, route oral; settings: read-out: Drug uptake
Hepatitis C virus [37] = experiment: Antiviral activity against HCV subgenomic 1a replicon upto 32 uM; assay type: functional, organism-based; settings: Hepacivirus hominis; subtype 1a
[38] = molecular target: Vascular endothelial growth factor receptor 2 (Homo sapiens, UniProt P35968); experiment: Inhibition of human VEGFR2
[39] = Inhibition of HCV NS3/4A protease; parameters: species or system Hepacivirus hominis
[40] = Half life in Swiss SPF (CD1) mouse liver at 20 mg/kg, po after 2 to 8 hrs; assay type: ADME, organism-based; parameters: dose 20 mg/kg, route oral
[41] = Drug level in Swiss SPF (CD1) mouse heart at 20 mg/kg, po after 0.5 hrs; assay type: ADME, organism-based; parameters: dose 20 mg/kg, route oral; settings: read-out: Drug uptake
Hepatitis C virus [42] = experiment: Antiviral activity against HCV subgenomic 1b replicon upto 32 uM; assay type: functional, organism-based; settings: Hepacivirus hominis; genotype 1b
[43] = Inhibition of HCV NS5B polymerase; parameters: species or system Hepacivirus hominis
[44] = Drug level in Swiss SPF (CD1) mouse heart at 20 mg/kg, po after 24 hrs; assay type: ADME, organism-based; parameters: dose 20 mg/kg, route oral; settings: read-out: Drug uptake
[45] = Drug level in Swiss SPF (CD1) mouse liver at 20 mg/kg, po after 0.5 hrs; assay type: ADME, organism-based; parameters: dose 20 mg/kg, route oral; settings: read-out: Drug uptake
[46] = molecular target: Vascular endothelial growth factor receptor 1 (Homo sapiens, UniProt P17948); experiment: Inhibition of human VEGFR1
[47] = Tmax in Swiss SPF (CD1) mouse liver at 20 mg/kg, po; assay type: ADME, organism-based; parameters: dose 20 mg/kg, route oral

Chain of Mitogen-activated protein kinase 10 (P53779 whole entry): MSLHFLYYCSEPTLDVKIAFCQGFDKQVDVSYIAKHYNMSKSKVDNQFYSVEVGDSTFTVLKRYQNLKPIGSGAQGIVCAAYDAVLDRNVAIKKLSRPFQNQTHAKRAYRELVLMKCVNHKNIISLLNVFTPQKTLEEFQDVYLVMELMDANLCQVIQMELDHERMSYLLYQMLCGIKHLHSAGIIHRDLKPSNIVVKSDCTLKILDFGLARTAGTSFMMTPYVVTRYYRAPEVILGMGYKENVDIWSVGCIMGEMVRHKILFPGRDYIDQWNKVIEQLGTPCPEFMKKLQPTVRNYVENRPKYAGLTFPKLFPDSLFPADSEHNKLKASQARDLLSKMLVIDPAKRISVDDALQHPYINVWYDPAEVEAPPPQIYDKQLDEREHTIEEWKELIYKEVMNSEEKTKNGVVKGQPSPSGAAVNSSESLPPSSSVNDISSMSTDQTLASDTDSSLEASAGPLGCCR
Chain of Vascular endothelial growth factor receptor 3 (P35916 whole entry): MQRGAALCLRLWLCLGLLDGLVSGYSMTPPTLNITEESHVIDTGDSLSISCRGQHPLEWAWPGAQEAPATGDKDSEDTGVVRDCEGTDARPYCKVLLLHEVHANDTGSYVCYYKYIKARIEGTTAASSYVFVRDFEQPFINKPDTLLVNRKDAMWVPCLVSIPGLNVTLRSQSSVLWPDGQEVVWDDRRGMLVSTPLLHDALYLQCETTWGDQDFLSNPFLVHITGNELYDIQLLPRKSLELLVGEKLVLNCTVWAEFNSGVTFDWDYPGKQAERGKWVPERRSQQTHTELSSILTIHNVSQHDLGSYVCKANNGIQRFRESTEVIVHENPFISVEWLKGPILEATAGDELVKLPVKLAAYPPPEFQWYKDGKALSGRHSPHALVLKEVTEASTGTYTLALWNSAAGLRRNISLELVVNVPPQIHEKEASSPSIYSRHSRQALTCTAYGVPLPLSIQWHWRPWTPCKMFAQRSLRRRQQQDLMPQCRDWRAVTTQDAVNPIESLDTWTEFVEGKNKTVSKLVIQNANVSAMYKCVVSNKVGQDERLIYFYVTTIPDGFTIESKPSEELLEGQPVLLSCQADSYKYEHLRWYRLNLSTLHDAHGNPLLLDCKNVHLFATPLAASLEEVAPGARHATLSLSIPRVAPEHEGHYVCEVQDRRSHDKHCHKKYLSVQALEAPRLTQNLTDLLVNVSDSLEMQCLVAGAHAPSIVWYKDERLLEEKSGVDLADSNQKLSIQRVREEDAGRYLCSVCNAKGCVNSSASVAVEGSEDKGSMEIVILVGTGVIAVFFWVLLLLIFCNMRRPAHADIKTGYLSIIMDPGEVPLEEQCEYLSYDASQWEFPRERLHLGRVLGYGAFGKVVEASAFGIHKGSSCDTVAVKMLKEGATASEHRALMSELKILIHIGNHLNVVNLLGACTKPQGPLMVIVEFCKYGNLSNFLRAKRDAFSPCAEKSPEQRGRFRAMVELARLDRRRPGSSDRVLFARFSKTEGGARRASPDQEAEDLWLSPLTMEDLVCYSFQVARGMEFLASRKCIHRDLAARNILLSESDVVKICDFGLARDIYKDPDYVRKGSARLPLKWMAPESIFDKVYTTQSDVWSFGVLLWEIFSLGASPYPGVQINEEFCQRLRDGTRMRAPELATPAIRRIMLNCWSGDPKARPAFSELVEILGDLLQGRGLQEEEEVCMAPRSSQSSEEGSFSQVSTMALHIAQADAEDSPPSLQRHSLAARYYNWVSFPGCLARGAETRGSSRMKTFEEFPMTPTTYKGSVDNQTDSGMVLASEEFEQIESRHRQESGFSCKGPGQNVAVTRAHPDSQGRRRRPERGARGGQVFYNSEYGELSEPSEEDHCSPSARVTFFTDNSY
Chain of Mitogen-activated protein kinase 8 (P45983 whole entry): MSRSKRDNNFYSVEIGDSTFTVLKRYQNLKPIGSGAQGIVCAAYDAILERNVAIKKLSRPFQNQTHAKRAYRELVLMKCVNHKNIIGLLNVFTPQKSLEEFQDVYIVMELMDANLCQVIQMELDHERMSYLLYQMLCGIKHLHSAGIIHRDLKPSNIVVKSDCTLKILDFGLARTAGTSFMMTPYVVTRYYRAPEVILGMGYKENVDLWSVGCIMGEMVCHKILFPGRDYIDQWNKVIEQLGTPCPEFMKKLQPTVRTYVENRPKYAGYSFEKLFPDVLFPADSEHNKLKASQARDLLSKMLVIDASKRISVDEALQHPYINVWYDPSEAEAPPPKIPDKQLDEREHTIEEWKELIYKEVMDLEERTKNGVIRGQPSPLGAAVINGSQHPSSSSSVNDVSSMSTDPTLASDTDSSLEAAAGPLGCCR
Chain of Mitogen-activated protein kinase 9 (P45984 whole entry): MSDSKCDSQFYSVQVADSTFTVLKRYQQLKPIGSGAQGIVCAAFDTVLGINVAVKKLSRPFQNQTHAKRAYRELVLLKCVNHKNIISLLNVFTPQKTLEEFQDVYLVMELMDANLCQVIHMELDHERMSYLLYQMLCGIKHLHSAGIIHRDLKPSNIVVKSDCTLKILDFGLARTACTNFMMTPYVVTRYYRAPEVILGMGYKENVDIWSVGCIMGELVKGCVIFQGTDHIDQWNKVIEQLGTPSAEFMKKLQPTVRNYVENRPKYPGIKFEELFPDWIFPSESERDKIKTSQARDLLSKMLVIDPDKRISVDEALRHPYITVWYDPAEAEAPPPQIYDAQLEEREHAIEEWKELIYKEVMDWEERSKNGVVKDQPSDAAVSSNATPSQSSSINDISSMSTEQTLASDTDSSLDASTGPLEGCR
Chain of Vascular endothelial growth factor receptor 1 (P17948 whole entry): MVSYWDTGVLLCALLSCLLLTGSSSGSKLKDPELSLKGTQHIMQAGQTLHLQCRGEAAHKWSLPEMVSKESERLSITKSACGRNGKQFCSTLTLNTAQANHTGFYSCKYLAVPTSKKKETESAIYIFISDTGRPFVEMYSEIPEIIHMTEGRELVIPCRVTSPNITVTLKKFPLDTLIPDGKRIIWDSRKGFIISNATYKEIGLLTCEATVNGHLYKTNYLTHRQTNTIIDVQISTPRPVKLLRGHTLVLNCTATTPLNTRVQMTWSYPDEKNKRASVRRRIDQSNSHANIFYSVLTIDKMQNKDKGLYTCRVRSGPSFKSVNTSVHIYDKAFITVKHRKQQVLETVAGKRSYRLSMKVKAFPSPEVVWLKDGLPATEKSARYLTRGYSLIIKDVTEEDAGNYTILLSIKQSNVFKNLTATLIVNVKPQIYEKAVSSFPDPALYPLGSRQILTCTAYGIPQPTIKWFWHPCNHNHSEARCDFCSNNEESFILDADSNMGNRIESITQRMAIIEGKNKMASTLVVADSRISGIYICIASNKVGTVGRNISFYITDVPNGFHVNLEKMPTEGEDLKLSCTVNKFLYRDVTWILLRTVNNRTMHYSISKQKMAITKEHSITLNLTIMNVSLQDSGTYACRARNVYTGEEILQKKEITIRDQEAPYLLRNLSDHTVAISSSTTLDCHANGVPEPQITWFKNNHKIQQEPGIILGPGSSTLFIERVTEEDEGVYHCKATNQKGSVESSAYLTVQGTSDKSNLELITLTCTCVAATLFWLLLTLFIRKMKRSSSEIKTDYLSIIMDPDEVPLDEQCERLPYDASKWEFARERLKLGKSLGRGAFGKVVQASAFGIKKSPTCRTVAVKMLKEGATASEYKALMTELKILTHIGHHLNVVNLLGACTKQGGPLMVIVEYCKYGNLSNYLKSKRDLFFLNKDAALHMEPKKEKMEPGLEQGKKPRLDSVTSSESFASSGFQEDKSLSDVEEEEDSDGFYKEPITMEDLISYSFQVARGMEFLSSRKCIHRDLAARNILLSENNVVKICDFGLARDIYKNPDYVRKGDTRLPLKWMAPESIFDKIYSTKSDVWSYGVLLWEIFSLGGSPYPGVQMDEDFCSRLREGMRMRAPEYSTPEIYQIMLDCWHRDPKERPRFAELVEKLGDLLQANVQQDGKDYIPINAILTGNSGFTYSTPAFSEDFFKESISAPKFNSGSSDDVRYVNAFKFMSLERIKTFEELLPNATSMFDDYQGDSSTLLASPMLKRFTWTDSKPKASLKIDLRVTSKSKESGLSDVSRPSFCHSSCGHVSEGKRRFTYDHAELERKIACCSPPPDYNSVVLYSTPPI

In the case of `Cc1cnccc1Nc1nc(-c2cc(Br)ccc2F)nc2nccnc12`, the CC50 [1] is reported as over 32 µM, the EC50 (Hepatitis C virus [2]) is reported as 0.8 µM and the CC50 [3] is reported as over 32 µM.
Compound `Fc1ccc(Br)cc1-c1nc(Nc2ccncc2)c2nccnc2n1` has a CC50 [1] of over 32 µM, an EC50 (Hepatitis C virus [2]) of 0.35 µM and a CC50 [3] of over 32 µM.
Compound `COc1cnc(-c2cc(Cl)ccc2F)nc1Nc1ccncc1C(=O)NCCN` has a CC50 [1] of 4.7 µM, an EC50 (Hepatitis C virus [2]) of 3.6 µM and a CC50 [3] of 5.5 µM.
`COc1cnc(-c2cc(Cl)ccc2F)nc1Nc1ccncc1C(=O)NCCCN1CCCC1=O` gave a CC50 [1] of 5.8 µM, an EC50 (Hepatitis C virus [2]) of 0.084 µM and a CC50 [3] of 17.7 µM.
`COc1cnc(-c2cc(Cl)ccc2F)nc1Nc1ccncc1C(=O)NC[C@H]1CCCO1` gave a CC50 [1] of over 32 µM, an EC50 (Hepatitis C virus [2]) of 2.6 µM and a CC50 [3] of over 32 µM.
With `Fc1ccc(Cl)cc1-c1nc(Nc2ccncc2)c2nccnc2n1` the CC50 [1] was over 25 µM, the EC50 (Hepatitis C virus [2]) was 0.89 µM and the CC50 [3] was over 25 µM.
For `O=C(NCCCN1CCCC1=O)c1cnccc1Nc1nc(-c2cc(Br)ccc2F)nc2nccnc12`, the concentration at 1 h [4] was 166 ng/mL, the Activity [5] was “inactive” and the IC50 (TGF-beta receptor type-1) was 0.0032 µM. It also gave a concentration at 24 h [6] of under 0.5 ng/mL, a concentration at 0.5 h [7] of 220 ng/mL and an AUC(0-inf) [8] of 332 ng·h/mL. The half-life [9] was 2.9 h, the AUC(0-t) at 8 h [10] was 1120 ng·h/mL and the concentration at 4 h [11] was 83.6 ng/mL. For the same compound, the Activity (Hepatitis C virus [12]) was “Active”, the AUC(0-inf) [13] was 1260 ng·h/mL and the AUC(0-t) at 8 h [14] was 309 ng·h/mL. The CC50 [1] was over 32 µM, the half-life [15] was 3.4 h and the concentration at 8 h [16] was 5.52 ng/mL. For the same compound, the Cmax [17] was 678 ng/mL, the IC50 [18] was 10.5 µM and the IC50 [19] was 0.037 µM. The concentration at 1 h [20] was 2940 ng/mL, the concentration at 4 h [21] was 20.3 ng/mL and the IC50 [22] was 0.123 µM. For the same compound, the AUC(0-t) at 8 h [23] was 6960 ng·h/mL, the concentration at 8 h [24] was 29.1 ng/mL and the concentration at 2 h [25] was 92.9 ng/mL. It also gave a Tmax [26] of 0.5 h, a concentration at 2 h [27] of 21.7 ng/mL and an EC50 (Hepatitis C virus [2]) of 0.064 µM. For the same compound, the Tmax [28] was 0.5 h, the concentration at 2 h [29] was 611 ng/mL and the concentration at 8 h [30] was 201 ng/mL. The Cmax [31] was 220 ng/mL, the concentration at 4 h [32] was 627 ng/mL and the Cmax [33] was 4060 ng/mL. The AUC(0-inf) [34] was 7970 ng·h/mL, the IC50 [35] was 0.059 µM and the concentration at 1 h [36] was 557 ng/mL. The Activity (Hepatitis C virus [37]) was “inactive”, the IC50 [38] was 0.14 µM and the IC50 [39] was over 30 µM. For the same compound, the half-life [40] was 3.5 h, the concentration at 0.5 h [41] was 678 ng/mL and the Activity (Hepatitis C virus [42]) was “inactive”. For the same compound, the CC50 [3] was over 32 µM, the IC50 [43] was over 30 µM and the concentration at 24 h [44] was 5 ng/mL. The concentration at 0.5 h [45] was 4060 ng/mL, the IC50 [46] was 0.047 µM and the Tmax [47] was 0.5 h.
